Data: patent US20210122730A1, “GLUCOCORTICOID RECEPTOR MODULATORS” (ORIC Pharmaceuticals, Inc., priority 2017, published 2021)

How the values were obtained:
[1] = biological target: T1, CYP2C8 (Homo sapiens, UniProt P10632); experiment: CYP Inhibition Assay (CYP2C8, human liver microsomes, paclitaxel substrate); format: in vitro ADME; settings: pH 7.4; pooled human liver microsomes 0.1 mg/mL, probe substrate paclitaxel
T1 construct: Pooled human microsomes were obtained from Sekisui XenoTech, KS; tissue Sekisui XenoTech, KS; host or cells: pooled human liver microsomes
T1 sequence (P10632 1-490): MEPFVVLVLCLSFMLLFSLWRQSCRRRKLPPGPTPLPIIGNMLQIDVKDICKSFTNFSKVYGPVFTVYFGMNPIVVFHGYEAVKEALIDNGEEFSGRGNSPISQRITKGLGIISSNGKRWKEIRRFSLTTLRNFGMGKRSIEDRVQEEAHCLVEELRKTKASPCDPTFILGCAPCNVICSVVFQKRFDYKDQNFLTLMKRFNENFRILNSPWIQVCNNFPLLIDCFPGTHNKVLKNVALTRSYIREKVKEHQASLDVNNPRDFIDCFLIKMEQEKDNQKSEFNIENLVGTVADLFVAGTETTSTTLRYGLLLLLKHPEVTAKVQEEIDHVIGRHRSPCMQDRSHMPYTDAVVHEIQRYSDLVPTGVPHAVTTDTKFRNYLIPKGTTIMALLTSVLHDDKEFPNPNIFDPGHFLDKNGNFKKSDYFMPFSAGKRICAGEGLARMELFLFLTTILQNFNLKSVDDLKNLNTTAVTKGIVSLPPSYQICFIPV
Summary of the method: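 CYP2C8 activity read as 6α-hydroxypaclitaxel formation by LC-MS/MS, with % inhibition versus vehicle control. Reactions ran 5 min at 37° C, pH 7.4 phosphate buffer, 0.1 mg/mL pooled human liver microsomes, 1 mM NADPH, duplicate wells.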

[2] = biological target: T2, GR (Homo sapiens, UniProt P04150); experiment: In Vitro GR Luciferase Reporter Assay (antagonist mode, CHO-K1-GR-MMTV-Luc reporter cells); format: cell-based; settings: antagonist mode, 10 nM Dexamethasone
T2 construct: expressed in transfected cells; host or cells: CHO-K1
T2 sequence (P04150 1-777): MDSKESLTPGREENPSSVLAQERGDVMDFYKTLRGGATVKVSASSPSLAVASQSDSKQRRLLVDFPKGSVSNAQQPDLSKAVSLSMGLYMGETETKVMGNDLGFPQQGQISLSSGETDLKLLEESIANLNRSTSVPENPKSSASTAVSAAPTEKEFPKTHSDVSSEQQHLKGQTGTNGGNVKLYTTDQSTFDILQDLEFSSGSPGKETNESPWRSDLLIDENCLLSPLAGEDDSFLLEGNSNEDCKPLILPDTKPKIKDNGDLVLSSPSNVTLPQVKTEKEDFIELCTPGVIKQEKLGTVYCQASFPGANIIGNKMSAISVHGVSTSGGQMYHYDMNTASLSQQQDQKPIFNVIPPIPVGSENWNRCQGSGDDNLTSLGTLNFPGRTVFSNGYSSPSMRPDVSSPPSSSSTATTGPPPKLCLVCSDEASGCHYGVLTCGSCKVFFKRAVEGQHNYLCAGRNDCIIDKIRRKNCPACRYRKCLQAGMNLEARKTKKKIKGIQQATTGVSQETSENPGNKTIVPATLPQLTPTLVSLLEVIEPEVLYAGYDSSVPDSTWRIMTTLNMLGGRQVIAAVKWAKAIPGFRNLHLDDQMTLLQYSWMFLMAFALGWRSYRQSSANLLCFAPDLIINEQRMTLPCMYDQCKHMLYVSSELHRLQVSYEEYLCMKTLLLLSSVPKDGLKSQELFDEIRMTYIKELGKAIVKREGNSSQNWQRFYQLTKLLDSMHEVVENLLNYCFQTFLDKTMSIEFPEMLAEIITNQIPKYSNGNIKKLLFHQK
Summary of the method: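 Antagonist mode: compounds (8 serial 1:5 dilutions) added to GR-MMTV-luciferase CHO-K1 reporter cells co-exposed to 10 nM dexamethasone final, in phenol red-free DMEM plus 10% CSS. After roughly 18-24 h at 37° C, OneGlo luminescence read and IC50 calculated.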

SMILES | inhibition at 5 min [1] [%] | IC50 [2] [µM]
O=C(c1cc(C(F)(F)F)ccn1)[C@]12Cc3cnn(-c4ccc(F)cc4)c3C=C1CC[C@H](N(CC1CC1)S(=O)(=O)c1ccc(Cl)nc1)C2 [Example 294, 6-chloro-N-(cyclopropylmethyl)-N-((4aS,6S)-1-(4-fluorophenyl)-4a-(4-(trifluoromethyl)picolinoyl)-4,4a,5,6,7,8-hexahydro-1H-benzo[f]indazol-6-yl)pyridine-3-sulfonamide] | ≤ 25 | ≤ 0.1
Cn1ccc(S(=O)(=O)N(CC2CC2)[C@H]2CCC3=Cc4c(cnn4-c4ccc(F)cc4)C[C@]3(C(=O)c3cc(C(F)F)ccn3)C2)n1 [Example 298, N-(cyclopropylmethyl)-N-((4aS,6S)-4a-(4-(difluoromethyl)picolinoyl)-1-(4-fluorophenyl)-4,4a,5,6,7,8-hexahydro-1H-benzo[f]indazol-6-yl)-1-methyl-1H-pyrazole-3-sulfonamide] | 50 to 75 | ≤ 0.1
Cc1ncc(S(=O)(=O)N(C2CC2)[C@H]2CCC3=Cc4c(cnn4-c4ccc(F)cc4)C[C@]3(C(=O)c3cc(C(F)(F)F)ccn3)C2)n1C [Example 307, N-cyclopropyl-N-((4aS,6S)-1-(4-fluorophenyl)-4a-(4-(trifluoromethyl)picolinoyl)-4,4a,5,6,7,8-hexahydro-1H-benzo[f]indazol-6-yl)-1,2-dimethyl-1H-imidazole-5-sulfonamide] | 25 to 50 | ≤ 0.1
CCn1ccc(S(=O)(=O)[C@H]2CCC3=Cc4c(cnn4-c4ccc(F)cc4)C[C@]3(C(=O)c3ccc(C(F)(F)F)cn3)C2)n1 [Example 308, ((4aS,6S)-6-((1-ethyl-1H-pyrazol-3-yl)sulfonyl)-1-(4-fluorophenyl)-1,4,5,6,7,8-hexahydro-4aH-benzo[f]indazol-4a-yl)(5-(trifluoromethyl)pyridin-2-yl)methanone] | 25 to 50 | ≤ 0.1
O=C(c1ccc(C(F)(F)F)cn1)[C@]12Cc3cnn(-c4ccc(F)cc4)c3C=C1CC[C@H](S(=O)(=O)c1ccn(C3CC3)n1)C2 [Example 309, ((4aS,6S)-6-((1-cyclopropyl-1H-pyrazol-3-yl)sulfonyl)-1-(4-fluorophenyl)-1,4,5,6,7,8-hexahydro-4aH-benzo[f]indazol-4a-yl)(5-(trifluoromethyl)pyridin-2-yl)methanone] | ≤ 25 | ≤ 0.1
Cn1cc(S(=O)(=O)N(CC(F)F)[C@H]2CCC3=Cc4c(cnn4-c4ccc(F)cc4)C[C@]3(C(=O)c3cc(C(F)(F)F)ccn3)C2)nn1 [Example 311, N-(2,2-difluoroethyl)-N-((4aS,6S)-1-(4-fluorophenyl)-4a-(4-(trifluoromethyl)picolinoyl)-4,4a,5,6,7,8-hexahydro-1H-benzo[f]indazol-6-yl)-1-methyl-1H-1,2,3-triazole-4-sulfonamide] | ≤ 25 | ≤ 0.1
Cn1ccc(S(=O)(=O)N(CC(F)F)[C@H]2CCC3=Cc4c(cnn4-c4ccc(F)cc4)C[C@]3(C(=O)c3cc(C(F)(F)F)ccn3)C2)n1 [Example 313, N-(2,2-difluoroethyl)-N-((4aS,6S)-1-(4-fluorophenyl)-4a-(4-(trifluoromethyl)picolinoyl)-4,4a,5,6,7,8-hexahydro-1H-benzo[f]indazol-6-yl)-1-methyl-1H-pyrazole-3-sulfonamide] | 25 to 50 | ≤ 0.1
O=C(c1cc(F)ccn1)[C@]12Cc3cnn(-c4ccc(F)cc4)c3C=C1CC[C@H](N(CC1CC1)S(=O)(=O)c1ccc(Cl)nc1)C2 [Example 319, 6-chloro-N-(cyclopropylmethyl)-N-((4aS,6S)-1-(4-fluorophenyl)-4a-(4-fluoropicolinoyl)-4,4a,5,6,7,8-hexahydro-1H-benzo[f]indazol-6-yl)pyridine-3-sulfonamide] | 50 to 75 | ≤ 0.1

Results, then the molecule that gave them:

inhibition at 5 min [1] [%] | IC50 [2] [µM] | SMILES
≤ 25 | ≤ 0.1 | Cn1cnc(S(=O)(=O)N(CC(F)(F)F)[C@H]2CCC3=Cc4c(cnn4-c4ccc(F)cc4)C[C@]3(C(=O)c3ncc(C(F)(F)F)s3)C2)c1 [Example 293, N-((4aS,6S)-1-(4-fluorophenyl)-4a-(5-(trifluoromethyl)thiazole-2-carbonyl)-4,4a,5,6,7,8-hexahydro-1H-benzo[f]indazol-6-yl)-1-methyl-N-(2,2,2-trifluoroethyl)-1H-imidazole-4-sulfonamide]
50 to 75 | ≤ 0.1 | CC(C)N([C@H]1CCC2=Cc3c(cnn3-c3ccc(F)cc3)C[C@]2(C(=O)c2cc(F)ccn2)C1)S(=O)(=O)c1cn(C)nn1 [Example 295, N-((4aS,6S)-1-(4-fluorophenyl)-4a-(4-fluoropicolinoyl)-4,4a,5,6,7,8-hexahydro-1H-benzo[f]indazol-6-yl)-N-isopropyl-1-methyl-1H-1,2,3-triazole-4-sulfonamide]
50 to 75 | ≤ 0.1 | CC(C)N([C@H]1CCC2=Cc3c(cnn3-c3ccc(F)cc3)C[C@]2(C(=O)c2cc(Cl)ccn2)C1)S(=O)(=O)c1cn(C)nn1 [Example 296, N-((4aS,6S)-4a-(4-chloropicolinoyl)-1-(4-fluorophenyl)-4,4a,5,6,7,8-hexahydro-1H-benzo[f]indazol-6-yl)-N-isopropyl-1-methyl-1H-1,2,3-triazole-4-sulfonamide]
≤ 25 | ≤ 0.1 | CC(C)N([C@H]1CCC2=Cc3c(cnn3-c3ccc(F)cc3)C[C@]2(C(=O)c2ncc(C(F)(F)F)s2)C1)S(=O)(=O)c1cn(C)cn1 [Example 299, N-((4aS,6S)-1-(4-fluorophenyl)-4a-(5-(trifluoromethyl)thiazole-2-carbonyl)-4,4a,5,6,7,8-hexahydro-1H-benzo[f]indazol-6-yl)-N-isopropyl-1-methyl-1H-imidazole-4-sulfonamide]
50 to 75 | ≤ 0.1 | Cn1ncc(S(=O)(=O)N(CC(F)(F)F)[C@H]2CCC3=Cc4c(cnn4-c4ccc(F)cc4)C[C@]3(C(=O)c3ncc(C(F)(F)F)s3)C2)n1 [Example 300, N-((4aS,6S)-1-(4-fluorophenyl)-4a-(5-(trifluoromethyl)thiazole-2-carbonyl)-4,4a,5,6,7,8-hexahydro-1H-benzo[f]indazol-6-yl)-2-methyl-N-(2,2,2-trifluoroethyl)-2H-1,2,3-triazole-4-sulfonamide]
25 to 50 | ≤ 0.1 | CC(C)n1ccc(S(=O)(=O)[C@H]2CCC3=Cc4c(cnn4-c4ccc(F)cc4)C[C@]3(C(=O)c3ccc(C(F)(F)F)cn3)C2)n1 [Example 310, ((4aS,6S)-1-(4-fluorophenyl)-6-((1-isopropyl-1H-pyrazol-3-yl)sulfonyl)-1,4,5,6,7,8-hexahydro-4aH-benzo[f]indazol-4a-yl)(5-(trifluoromethyl)pyridin-2-yl)methanone]
25 to 50 | ≤ 0.1 | O=C(c1ncc(C(F)(F)F)s1)[C@]12Cc3cnn(-c4ccc(F)cc4)c3C=C1CC[C@H](N(CC(F)(F)F)S(=O)(=O)c1ccc(Cl)nc1)C2 [Example 312, 6-chloro-N-((4aS,6S)-1-(4-fluorophenyl)-4a-(5-(trifluoromethyl)thiazole-2-carbonyl)-4,4a,5,6,7,8-hexahydro-1H-benzo[f]indazol-6-yl)-N-(2,2,2-trifluoroethyl)pyridine-3-sulfonamide]
25 to 50 | ≤ 0.1 | Cn1cnc(S(=O)(=O)N(CC2CC2)[C@H]2CCC3=Cc4c(cnn4-c4ccc(F)cc4)C[C@]3(C(=O)c3ncc(C(F)(F)F)s3)C2)n1 [Example 315, N-(cyclopropylmethyl)-N-((4aS,6S)-1-(4-fluorophenyl)-4a-(5-(trifluoromethyl)thiazole-2-carbonyl)-4,4a,5,6,7,8-hexahydro-1H-benzo[f]indazol-6-yl)-1-methyl-1H-1,2,4-triazole-3-sulfonamide]
